Experimental data published in patent US20030049253A1, “Polymeric conjugates for delivery of MHC-recognized epitopes via peptide vaccines” (priority 2001, published 2003).

Legend:
[1] = tested on: human amyloid β amino acid residues 1-42 (Aβ42 peptide); assay: Antibody titer to Aβ42 peptide in vaccinated mice; type: in vivo; conditions: 100 μg Aβ42 peptide per injection s.c., day 0 and day 14; FIG. 5
Experimental: Mice were immunized with 100 μg Aβ42 peptide per injection. Aβ42 in PBS alone was injected as control. Mice were primed s.c. on day 0 and boosted on day 14. Detection used goat anti-mouse immunoglobulin conjugated to alkaline phosphatase and p-nitrophenyl phosphate.

[2] = tested on: CD4+ and CD8+ splenocytes; design: species or system BALB/c mice; conditions: mouse, in vivo
[3] = tested on: Mouse spleen cells; assay: In vitro cytokine assay: IFN-γ ELISA of spleen cell culture supernatants; type: in vivo; conditions: spleen cells cultured with p7g peptide, 24 hours; limit of detection 5 pg/ml; FIG. 3
Experimental: In vitro cytokine assay. Mouse spleen cells were cultured with p7g peptides in parallel with the ELISpot assays. Culture supernatants were collected 24 hours after addition of peptide, and the concentrations of gamma interferon (IFN-γ) were determined by enzyme-linked immunosorbent assay (ELISA). Briefly, anti-mouse IFN-γ (R46A2; monoclonal antibody, Pharmingen) was diluted in coating buffer (pH 9.6) and coated (1 μg protein/well) onto 96-well enzyme-linked immunosorbent assay (ELISA) plates (Nunc Immunoplates; Nunc. Corp., Naperville, Ill.) by overnight incubation at 4° C. The plates were washed six times in wash buffer, then blocked with PBS containing 0.05% Tween 20 (Sigma), 1% low-fat dry milk (Carnation; Nestle Food Corp., Glendale, Calif.), and 4% goat serum (KPL Laboratories, Gaithersburg, Md.) for 1 hour. After washing, each plate was incubated with samples diluted in PBS containing 1% BSA and 0.05% Tween 20 for 1 hour. The plates were then incubated with rabbit anti-mouse IFN-γ (Cytlmmune Sciences, Inc. College, Md.) diluted 1:1000 in the same PBS solution for 1 hour and washed again six times. […] The bound mouse IFN-γ was quantitated by calorimetric reaction using p-nitrophenyl phosphate as a substrate (KPL Laboratories). The optical density (OD) was measured at 405 nm in a Bio-Tek Plate Reader (Winooski, Vt.). […]

[4] = tested on: R5 and dual-tropic (R5/X4) HIV-1 strains; conditions: monocyte-derived macrophages, microglia, primary CD4(+) T cells; cited from earlier work
[5] = molecular target: CD4 receptor (Homo sapiens, UniProt P01730); conditions: in vitro; cited from earlier work

Substance: Aβ42 peptide alone
- antibody titer to Aβ42 peptide [1]: no detectable anti-peptide antibody

Substance: Aβ42 peptide linked to HA
- antibody titer to Aβ42 peptide [1]: substantial

Substance: AMQMLKETI [free p7g peptide]
- CTL response and INF-γ expression (intracellular staining, flow cytometry) [2]: no CTL or INF-γ expression
- concentration of IFN-γ in culture supernatants (ELISA) [3]: no measurable IFN-γ

Substance: AS TTTNYT [Peptide T]
- replication of HIV-1 strains [4]: inhibits replication
- binding of isolated gp120 and HIV-1 to the CD4 receptor [5]: inhibition of the binding
